Assay results as given in US12077503B2, “Substituted cyclic amides and their use as herbicides” (FMC CORPORATION, priority 2015, dated 2024).

How the values were obtained:
Format in all cases: in vivo
[1] = tested on: ducksalad (Heteranthera limosa); assay: Test B flooded paddy test; settings: Heteranthera limosa, 250 g ai/ha, Flood; 0 to 100 scale where 0 is no effect and 100 is complete control; read-out: Ducksalad plant response rating
Outline: (§1)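 Percent control, visually estimated after 13–15 d in the greenhouse on a 0–100 basis, compares treated pots with untreated ones; compound was put into paddy water 3 cm above the soil when plants had two leaves.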

rice (Oryra sativa) = assay: Test B flooded paddy test; settings: Oryza sativa, 250 g ai/ha, Flood; 0 to 100 scale where 0 is no effect and 100 is complete control; read-out: Rice plant response rating
Outline: as §1

[2] = tested on: barnyardgrass (Echinochloa crus-galli); assay: Test B flooded paddy test; settings: Echinochloa crus-galli, 250 g ai/ha, Flood; 0 to 100 scale where 0 is no effect and 100 is complete control; read-out: Barnyardgrass plant response rating
Outline: as §1

[3] = tested on: sedge, umbrella (small-flower umbrella sedge, Cyperus difformis); assay: Test B flooded paddy test; settings: Cyperus difformis, 250 g ai/ha, Flood; 0 to 100 scale where 0 is no effect and 100 is complete control; read-out: Sedge, Umbrella plant response rating
Outline: as §1

[4] = tested on: giant foxtail (Setaria faberii); assay: Test A preemergence; settings: Setaria faberi, pre-emergence, 240 h, 0 to 100 scale where 0 is no effect and 100 is complete control, read-out: Foxtail, Giant plant response rating; for pest or weed control at 31 g/ha: 31 g ai/ha, Preemergence; for pest or weed control at 125 g/ha: 125 g ai/ha, preemergence, approx. 10 d
Outline: (§2)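 Visual injury, scored on a 0–100 scale relative to untreated controls, was recorded about 10 d after application. Treatments were a preemergence soil spray over planted seeds or a postemergence spray on plants at the one- to two-leaf stage, 2 to 10 cm tall, all in loam soil–sand blend in the greenhouse.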

Kochia (Kochia scoparia) [5] = assay: Test A preemergence; settings: Bassia scoparia, pre-emergence, 240 h, 0 to 100 scale where 0 is no effect and 100 is complete control, read-out: Kochia plant response rating; for pest or weed control at 31 g/ha: 31 g ai/ha, Preemergence; for pest or weed control at 125 g/ha: 125 g ai/ha, preemergence, approx. 10 d
Outline: as §2

[6] = tested on: pigweed (Amaranthus retroflexus); assay: Test A preemergence; settings: Amaranthus retroflexus, pre-emergence, 240 h, 0 to 100 scale where 0 is no effect and 100 is complete control, read-out: Pigweed plant response rating; for pest or weed control at 31 g/ha: 31 g ai/ha, Preemergence; for pest or weed control at 125 g/ha: 125 g ai/ha, preemergence, approx. 10 d
[7] = tested on: ryegrass, Italian (Italian ryegrass, Lolium multiflorum); assay: Test A preemergence; settings: Lolium multiflorum, pre-emergence, 240 h, 0 to 100 scale where 0 is no effect and 100 is complete control, read-out: Ryegrass, Italian plant response rating; for pest or weed control at 31 g/ha: 31 g ai/ha, Preemergence; for pest or weed control at 125 g/ha: 125 g ai/ha, preemergence, approx. 10 d
Outline: as §2

[8] = tested on: barnyardgrass (Echinochloa crus-galli); assay: Test A preemergence; settings: Echinochloa crus-galli, pre-emergence, 240 h, 0 to 100 scale where 0 is no effect and 100 is complete control, read-out: Barnyardgrass plant response rating; for pest or weed control at 31 g/ha: 31 g ai/ha, Preemergence; for pest or weed control at 125 g/ha: 125 g ai/ha, preemergence, approx. 10 d
Outline: as §2

[9] = tested on: ragweed (common ragweed, Ambrosia elatior); assay: Test A preemergence; settings: Ambrosia artemisiifolia, pre-emergence, 240 h, 0 to 100 scale where 0 is no effect and 100 is complete control, read-out: Ragweed plant response rating; for pest or weed control at 31 g/ha: 31 g ai/ha, Preemergence; for pest or weed control at 125 g/ha: 125 g ai/ha, preemergence, approx. 10 d
Outline: as §2

[10] = tested on: giant foxtail (Setaria faberii); assay: Test A postemergence; settings: Setaria faberi, post-emergence, 240 h; for pest or weed control at 125 g/ha: 125 g ai/ha, postemergence, visual injury on 0 to 100 scale (0 no effect, 100 complete control), approx. 10 d, read-out: Foxtail, Giant plant response rating; for pest or weed control at 31 g/ha: Postemergence, 31 g ai/ha, visual injury after approx. 10 d, 0 to 100 scale, 0 no effect, 100 complete control, read-out: Plant response rating, Foxtail, Giant
Outline: as §2

corn (Zea mays) = assay: Test A postemergence; settings: Zea mays, post-emergence, 240 h; for plant injury at 125 g/ha: 125 g ai/ha, postemergence, visual injury on 0 to 100 scale (0 no effect, 100 complete control), approx. 10 d, read-out: Corn plant response rating; for Corn plant response rating (crop injury, 0 = no effect, 100 = complete kill) at 31 g/ha: Postemergence, 31 g ai/ha, visual injury after approx. 10 d, 0 to 100 scale, 100 complete control
Outline: as §2

Kochia (Kochia scoparia) [11] = assay: Test A postemergence; settings: Bassia scoparia, post-emergence, 240 h; for pest or weed control at 125 g/ha: 125 g ai/ha, postemergence, visual injury on 0 to 100 scale (0 no effect, 100 complete control), approx. 10 d, read-out: Kochia plant response rating; for pest or weed control at 31 g/ha: Postemergence, 31 g ai/ha, visual injury after approx. 10 d, 0 to 100 scale, 0 no effect, 100 complete control, read-out: Plant response rating, Kochia
Outline: as §2

[12] = tested on: wheat (Triticum aestivum); assay: Test A postemergence; settings: Triticum aestivum, post-emergence, 240 h; for plant injury at 125 g/ha: 125 g ai/ha, postemergence, visual injury vs untreated controls after approx. 10 d, 0 = no effect, 100 = complete control, read-out: Wheat plant response rating (0 to 100 scale); for plant injury at 31 g/ha: Postemergence, 31 g ai/ha, visual injury after approx. 10 d, 0 to 100 scale, 0 no effect, 100 complete control, read-out: Plant response rating, Wheat
Outline: as §2

[13] = tested on: Galium (catchweed bedstraw, Galium aparine); assay: Test A postemergence; settings: Galium, post-emergence, 240 h; for pest or weed control at 125 g/ha: 125 g ai/ha, postemergence, visual injury on 0 to 100 scale (0 no effect, 100 complete control), approx. 10 d, read-out: Galium plant response rating; for pest or weed control at 31 g/ha: Postemergence, 31 g ai/ha, visual injury after approx. 10 d, 0 to 100 scale, 0 no effect, 100 complete control, read-out: Plant response rating, Galium
Outline: as §2

[14] = tested on: pigweed (Amaranthus retroflexus); assay: Test A postemergence; settings: Amaranthus retroflexus, post-emergence, 240 h; for pest or weed control at 125 g/ha: 125 g ai/ha, postemergence, visual injury vs untreated controls after approx. 10 d, 0 = no effect, 100 = complete control, read-out: Pigweed plant response rating (0 to 100 scale); for pest or weed control at 31 g/ha: Postemergence, 31 g ai/ha, visual injury after approx. 10 d, 0 to 100 scale, 0 no effect, 100 complete control, read-out: Plant response rating, Pigweed
Outline: as §2

[15] = tested on: ryegrass, Italian (Italian ryegrass, Lolium multiflorum); assay: Test A postemergence; settings: Lolium multiflorum, post-emergence, 240 h; for pest or weed control at 125 g/ha: 125 g ai/ha, postemergence, visual injury vs untreated controls after approx. 10 d, 0 = no effect, 100 = complete control, read-out: Ryegrass, Italian plant response rating (0 to 100 scale); for pest or weed control at 31 g/ha: Postemergence, 31 g ai/ha, visual injury after approx. 10 d, 0 to 100 scale, 0 no effect, 100 complete control, read-out: Plant response rating, Ryegrass, Italian
Outline: as §2

[16] = tested on: blackgrass (Alopecurus myosuroides); assay: Test A postemergence; settings: Alopecurus myosuroides, post-emergence, 240 h; for pest or weed control at 125 g/ha: 125 g ai/ha, postemergence, visual injury on 0 to 100 scale (0 no effect, 100 complete control), approx. 10 d, read-out: Blackgrass plant response rating; for pest or weed control at 31 g/ha: Postemergence, 31 g ai/ha, visual injury after approx. 10 d, 0 to 100 scale, 0 no effect, 100 complete control, read-out: Plant response rating, Blackgrass
Outline: as §2

[17] = tested on: barnyardgrass (Echinochloa crus-galli); assay: Test A postemergence; settings: Echinochloa crus-galli, post-emergence, 240 h; for pest or weed control at 125 g/ha: 125 g ai/ha, postemergence, visual injury on 0 to 100 scale (0 no effect, 100 complete control), approx. 10 d, read-out: Barnyardgrass plant response rating; for pest or weed control at 31 g/ha: Postemergence, 31 g ai/ha, visual injury after approx. 10 d, 0 to 100 scale, 0 no effect, 100 complete control, read-out: Plant response rating, Barnyardgrass
Outline: as §2

[18] = tested on: ragweed (common ragweed, Ambrosia elatior); assay: Test A postemergence; settings: Ambrosia artemisiifolia, post-emergence, 240 h; for pest or weed control at 125 g/ha: 125 g ai/ha, postemergence, visual injury vs untreated controls after approx. 10 d, 0 = no effect, 100 = complete control, read-out: Ragweed plant response rating (0 to 100 scale); for pest or weed control at 31 g/ha: Postemergence, 31 g ai/ha, visual injury after approx. 10 d, 0 to 100 scale, 0 no effect, 100 complete control, read-out: Plant response rating, Ragweed
Outline: as §2

CN1C[C@H](c2ccc(Cl)cc2)[C@@H](C(=O)Nc2ccc(F)c(F)c2F)C1=O [Compound 1144]
pest or weed control at 250 g/ha [1]: 100%
pest or weed control at 250 g/ha (rice (Oryra sativa)): 20%
pest or weed control at 250 g/ha [2]: 85%
pest or weed control at 250 g/ha [3]: 0%
pest or weed control at 31 g/ha [4]: 90%
pest or weed control at 125 g/ha [4]: 90%
pest or weed control at 31 g/ha (Kochia (Kochia scoparia) [5]): 50%
pest or weed control at 125 g/ha (Kochia (Kochia scoparia) [5]): 60%
pest or weed control at 31 g/ha [6]: 30%
pest or weed control at 125 g/ha [6]: 80%
pest or weed control at 31 g/ha [7]: 50%
pest or weed control at 125 g/ha [7]: 50%
pest or weed control at 31 g/ha [8]: 90%
pest or weed control at 125 g/ha [8]: 90%
pest or weed control at 31 g/ha [9]: 0%
pest or weed control at 125 g/ha [9]: 20%
pest or weed control at 125 g/ha [10]: 90%
pest or weed control at 31 g/ha [10]: 80%
plant injury at 125 g/ha (corn (Zea mays)): 50%
Corn plant response rating (crop injury, 0 = no effect, 100 = complete kill) at 31 g/ha (corn (Zea mays)): 20%
pest or weed control at 125 g/ha (Kochia (Kochia scoparia) [11]): 70%
pest or weed control at 31 g/ha (Kochia (Kochia scoparia) [11]): 50%
plant injury at 125 g/ha [12]: 50%
plant injury at 31 g/ha [12]: 30%
pest or weed control at 125 g/ha [13]: 40%
pest or weed control at 31 g/ha [13]: 0%
pest or weed control at 125 g/ha [14]: 30%
pest or weed control at 31 g/ha [14]: 0%
pest or weed control at 125 g/ha [15]: 60%
pest or weed control at 31 g/ha [15]: 30%
pest or weed control at 125 g/ha [16]: 40%
pest or weed control at 31 g/ha [16]: 0%
pest or weed control at 125 g/ha [17]: 90%
pest or weed control at 31 g/ha [17]: 90%
pest or weed control at 125 g/ha [18]: 70%
pest or weed control at 31 g/ha [18]: 20%

C=C(C)c1ccc([C@H]2CN(C)C(=O)[C@@H]2C(=O)Nc2cccc(F)c2C)cc1 [Compound 1150]
pest or weed control at 250 g/ha [1]: 0%
pest or weed control at 250 g/ha (rice (Oryra sativa)): 0%
pest or weed control at 250 g/ha [2]: 0%
pest or weed control at 250 g/ha [3]: 0%
pest or weed control at 31 g/ha [4]: 30%
pest or weed control at 125 g/ha [4]: 90%
pest or weed control at 31 g/ha (Kochia (Kochia scoparia) [5]): 0%
pest or weed control at 125 g/ha (Kochia (Kochia scoparia) [5]): 0%
pest or weed control at 31 g/ha [6]: 0%
pest or weed control at 125 g/ha [6]: 0%
pest or weed control at 31 g/ha [7]: 0%
pest or weed control at 125 g/ha [7]: 0%
pest or weed control at 31 g/ha [8]: 0%
pest or weed control at 125 g/ha [8]: 70%
pest or weed control at 31 g/ha [9]: 0%
pest or weed control at 125 g/ha [9]: 0%
pest or weed control at 125 g/ha [10]: 50%
pest or weed control at 31 g/ha [10]: 0%
plant injury at 125 g/ha (corn (Zea mays)): 20%
Corn plant response rating (crop injury, 0 = no effect, 100 = complete kill) at 31 g/ha (corn (Zea mays)): 0%
pest or weed control at 125 g/ha (Kochia (Kochia scoparia) [11]): 20%
pest or weed control at 31 g/ha (Kochia (Kochia scoparia) [11]): 0%
plant injury at 125 g/ha [12]: 0%
plant injury at 31 g/ha [12]: 0%
pest or weed control at 125 g/ha [13]: 20%
pest or weed control at 31 g/ha [13]: 0%
pest or weed control at 125 g/ha [14]: 0%
pest or weed control at 31 g/ha [14]: 0%
pest or weed control at 125 g/ha [15]: 0%
pest or weed control at 31 g/ha [15]: 0%
pest or weed control at 125 g/ha [16]: 0%
pest or weed control at 31 g/ha [16]: 0%
pest or weed control at 125 g/ha [17]: 40%
pest or weed control at 31 g/ha [17]: 0%
pest or weed control at 125 g/ha [18]: 0%
pest or weed control at 31 g/ha [18]: 0%
